Read-outs that look alike come from different tables or passages of the source.
Molecular target: T1, USP7 (Homo sapiens, UniProt Q93009)
T1 construct: USP7, construct USP7 (208-1102) 6*His, Viva Biotech; 6xHis (C); purchased Viva Biotech
Test: USP7 Assay A (Ubitquin-Rhodamine 110 Assay)
Assay type: biochemical
Settings: read-out: USP7_IC50
In short: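 Ub-Rh110 cleavage in 20 mM Tris-HCl pH 8.0 with 1 mM GSH, 0.03% BGG, 0.01% Triton X-100; compound preincubated with enzyme 30 min before substrate.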

[1] = USP7 assay A and B (table does not say which assay per compound)
[2] = USP7 activity in USP7 assay A and B (table does not say which assay per compound)

T1 sequence (Q93009 208-1102): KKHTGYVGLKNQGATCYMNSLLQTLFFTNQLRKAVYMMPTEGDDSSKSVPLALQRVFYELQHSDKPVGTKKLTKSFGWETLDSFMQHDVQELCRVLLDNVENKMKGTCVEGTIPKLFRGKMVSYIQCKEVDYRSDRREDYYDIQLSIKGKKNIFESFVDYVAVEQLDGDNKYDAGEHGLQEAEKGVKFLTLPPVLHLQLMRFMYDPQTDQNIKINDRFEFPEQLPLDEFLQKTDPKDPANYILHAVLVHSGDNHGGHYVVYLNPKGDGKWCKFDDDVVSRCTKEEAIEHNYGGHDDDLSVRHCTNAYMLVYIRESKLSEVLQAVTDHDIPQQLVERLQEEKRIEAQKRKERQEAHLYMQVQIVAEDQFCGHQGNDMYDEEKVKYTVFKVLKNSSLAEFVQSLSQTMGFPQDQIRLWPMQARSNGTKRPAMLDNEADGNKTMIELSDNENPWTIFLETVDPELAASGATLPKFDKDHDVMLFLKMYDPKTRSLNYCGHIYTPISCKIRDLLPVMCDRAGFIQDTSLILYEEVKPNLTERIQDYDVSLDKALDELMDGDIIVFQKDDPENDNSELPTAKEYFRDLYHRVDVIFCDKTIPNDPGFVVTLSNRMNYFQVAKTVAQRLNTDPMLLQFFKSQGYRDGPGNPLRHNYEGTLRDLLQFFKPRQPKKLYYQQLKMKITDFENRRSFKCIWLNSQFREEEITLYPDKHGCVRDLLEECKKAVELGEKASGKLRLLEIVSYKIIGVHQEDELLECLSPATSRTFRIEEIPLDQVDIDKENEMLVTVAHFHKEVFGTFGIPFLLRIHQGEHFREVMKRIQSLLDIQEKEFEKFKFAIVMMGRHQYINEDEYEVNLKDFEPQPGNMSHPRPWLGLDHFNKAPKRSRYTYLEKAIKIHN

SMILES | IC50 [1] [µM] | IC50 [2] [µM]
C#CC(=O)NC1CC(C(=O)N2CCC(O)(Cn3cnc4c(cnn4-c4ccccc4)c3=O)CC2)C1 (stereo not shown) [Compound I-259] | 1 to 10 | 
Cn1nccc1NC1CCC(C(=O)N2CCC(O)(Cn3cnc4c(cnn4-c4ccc(F)cc4)c3=O)CC2)CC1 (stereo not shown) [Compound I-763] |  | 1 to 10
O=C(c1ccc(Oc2ccccn2)cn1)N1CCC(O)(Cn2cnc3c(cnn3-c3ccc(F)cc3)c2=O)CC1 [Compound I-547] |  | 1 to 10
O=C(C1CC1)N1CCC(O)(Cn2cnc3c(cnn3-c3ccc(Cl)cc3Cl)c2=O)CC1 [Compound I-264] | > 10 | 
CC(C)(CO)n1cc(-c2ccc(-n3ncc4c(=O)n(CC5(O)CCN(C(=O)c6ccc(F)cc6)CC5)cnc43)cc2)cn1 [Compound I-1616] |  | 0.2 to 1
O=C(c1ccc(OC(F)F)cc1)N1CCC(O)(Cn2cnc3c(cnn3-c3cccc(CO)c3)c2=O)CC1 [Compound I-989] | 1 to 10 | 
Cn1cc(-c2ccc(-n3ncc4c(=O)n(CC5(O)CCN(C(=O)C6(C)CC6)CC5)cnc43)cc2)cn1 [Compound I-775] |  | 0.2 to 1
O=C(c1ccc(Oc2ncccn2)cc1)N1CCC(O)(Cn2cnc3c(cnn3-c3ccc(F)cc3)c2=O)CC1 [Compound I-539] | 1 to 10 | 
CC1(C(=O)N2CCC(O)(Cn3cnc4c(cnn4-c4ccc(-n5cccn5)cc4)c3=O)CC2)CCC1 [Compound I-782] |  | < 0.2
O=C(C1CC1)N1CCC(O)(Cn2cnc3c(cnn3-c3ccc(-c4cnn5ccccc45)cc3)c2=O)CC1 [Compound I-1736] |  | 0.2 to 1
O=C(c1cnc(C2CC2)o1)N1CCC(O)(Cn2cnc3c(cnn3-c3ccc(-c4cccnc4)cc3)c2=O)CC1 [Compound I-985] |  | 0.2 to 1
O=C(c1ccc(=O)[nH]c1)N1CCC(O)(Cn2cnc3c(cnn3-c3ccccc3)c2=O)CC1 [Compound I-160] | 0.2 to 1 | 
O=C(C1CCC(Oc2ccncc2)CC1)N1CCC(O)(Cn2cnc3c(cnn3-c3ccc(F)cc3)c2=O)CC1 (stereo not shown) [Compound I-751] |  | 1 to 10
CC1(C(=O)N2CCC(O)(Cn3cnc4c(cnn4-c4cccc(N5CCC(F)CC5)c4)c3=O)CC2)CC1 [Compound I-1561] |  | < 0.2
O=C(c1ccc(F)cc1)N1CCC(O)(Cn2cnc3c(cnn3-c3ccc(-c4cnn(C5CCS(=O)(=O)CC5)c4)cc3)c2=O)CC1 [Compound I-1744] |  | 0.2 to 1
CC1(C(=O)N2CCC(O)(Cn3cnc4c(cnn4-c4cccc(N5CCC(C#N)CC5)c4)c3=O)CC2)CC1 [Compound I-1751] |  | 0.2 to 1
CS(=O)(=O)c1ccc(-n2ncc3c(=O)n(CC4(O)CCN(C(=O)C5CC5)CC4)cnc32)cc1 [Compound I-31] | 1 to 10 | 
Cn1ncc2c(=O)n(CC3(O)CCN(C(=O)CC(C(F)F)n4ccc(F)n4)CC3)cnc21 (stereo not shown) [Compound I-1753] |  | 0.2 to 1
CN(C)C(=O)N1CCC(O)(Cn2cnc3c(cnn3-c3cccc(-n4cc(Cl)cn4)c3)c2=O)CC1 [Compound I-1666] | > 10 | 
O=C(C[C@@H](C(F)F)n1ccc(F)n1)N1CCC(O)(Cn2cnc3c(cnn3-c3ccc(N4CC5CC5C4)cc3)c2=O)CC1 (stereo partly shown) [Compound I-784] |  | < 0.2
COc1ccc(Cl)cc1C(=O)N1CCC(O)(Cn2cnc3c(cnn3-c3ccccc3)c2=O)CC1 [Compound I-218] | 1 to 10 | 
O=C(c1ccc(Cl)cc1Cl)N1CCC(O)(Cn2cnc3c(cnn3-c3ccccc3)c2=O)CC1 [Compound I-224] | 0.2 to 1 | 

SMILES | IC50 [1] [µM] | IC50 [2] [µM]
CN(C)C(=O)N1CCC(O)(Cn2cnc3c(cnn3-c3cccc(N4C[C@@H](O)[C@H](F)C4)c3)c2=O)CC1 [Compound I-974] | 1 to 10 | 
C[C@@H]1CN(c2ccc(-n3ncc4c(=O)n(CC5(O)CCN(C(=O)C6(C)CC6)CC5)cnc43)cc2)CCN1C [Compound I-1640] |  | < 0.2
O=C(c1ccc(-c2cnn3c2NCCC3)cc1)N1CCC(O)(Cn2cnc3c(cnn3-c3ccc(F)cc3)c2=O)CC1 [Compound I-552] |  | 0.2 to 1
O=C(C[C@H](n1cccn1)C(F)(F)F)N1CCC(O)(Cn2cnc3c(cnn3-c3ccc(F)cc3)c2=O)CC1 [Compound I-912] |  | 1 to 10
O=C(c1ccc(F)cc1)N1CCC(O)(Cn2cnc3c(cnn3-c3ccc(F)c(O)c3)c2=O)CC1 [Compound I-632] | 1 to 10 | 
C=CS(=O)(=O)N[C@H](Cc1ccccc1)C(=O)N1CCC(O)(Cn2cnc3c(cnn3-c3ccccc3)c2=O)CC1 [Compound I-814] | 0.2 to 1 | 
O=C(c1ccc(N2CCOCC2)nc1)N1CCC(O)(Cn2cnc3c(cnn3-c3ccc(F)cc3)c2=O)CC1 [Compound I-419] | 1 to 10 | 
Cc1ncc(C(=O)N2CCC(O)(Cn3cnc4c(cnn4-c4ccc(-n5cc(CO)cn5)cc4)c3=O)CC2)o1 [Compound I-1687] |  | < 0.2
Cc1cc2c(=O)n(CC3(O)CCN(C(=O)c4cnc(C5CC5)o4)CC3)cnc2n1-c1ccc(F)cc1 [Compound I-850] |  | 0.2 to 1
COc1cc(OC)cc(C(=O)N2CCC(O)(Cn3cnc4c(cnn4-c4ccccc4)c3=O)CC2)c1 [Compound I-203] | > 10 | 
O=C(N1CCC(O)(Cn2cnc3c(cnn3-c3ccc(F)cc3)c2=O)CC1)N1CCc2cn[nH]c2C1 [Compound I-761] |  | < 0.2
C[C@H](CC(=O)N1CCC(O)(Cn2cnc3c(cnn3-c3ccccc3)c2=O)CC1)n1cccn1 [Compound I-175] | < 0.2 | 
Cc1cc(C(=O)N2CCC(O)(Cn3cnc4c(cnn4-c4ccccc4)c3=O)CC2)nn1C [Compound I-229] | 1 to 10 | 
Cc1ncc(C(=O)N2CCC(O)(Cn3cnc4c(cnn4-c4ccc(F)cc4)c3=O)CC2)o1 [Compound I-531] | 1 to 10 | 
CC1(C(=O)N2CCC(O)(Cn3cnc4c(cnn4-c4ccc(N5CC6CC(C5)O6)cc4)c3=O)CC2)CC1 [Compound I-1643] |  | 0.2 to 1
CNC1CCN(c2ccc(-c3ccc(-n4ncc5c(=O)n(CC6(O)CCN(C(=O)C7CC7)CC6)cnc54)cc3)cn2)C1 (stereo not shown) [Compound I-685] |  | < 0.2
CNC1CCN(c2ccc(-c3ccc(-n4ncc5c(=O)n(CC6(O)CCN(C(=O)C7CC7)CC6)cnc54)cc3)cn2)C1 (stereo not shown) [Compound I-845] |  | < 0.2
O=C(C[C@@H](n1cccn1)C(F)(F)F)N1CCC(O)(Cn2cnc3c(cnn3-c3ccc(F)cc3)c2=O)CC1 [Compound I-913] |  | 1 to 10
CN1CCCCC1COc1cccc(-n2ncc3c(=O)n(CC4(O)CCN(C(=O)c5ccc(F)cc5)CC4)cnc32)c1 (stereo not shown) [Compound I-1314] | 0.2 to 1 | 
CC1(C(=O)N2CCC(O)(Cn3cnc4c(cnn4-c4ccc(OC5CC(F)(F)C5)cc4)c3=O)CC2)CC1 [Compound I-1801] | < 0.2 | 
CNC(=O)Nc1cccc(-n2ncc3c(=O)n(CC4(O)CCN(C(=O)C5CC5)CC4)cnc32)c1 [Compound I-507] | 1 to 10 | 
O=C(C[C@@H](C(F)F)n1ccc(Cl)n1)N1CCC(O)(Cn2cnc3c(cnn3-c3ccc(F)cc3)c2=O)CC1 [Compound I-732] |  | 1 to 10

SMILES | IC50 [1] [µM] | IC50 [2] [µM]
Cn1cc(C2CCC(C(=O)N3CCC(O)(Cn4cnc5c(cnn5-c5ccc(F)cc5)c4=O)CC3)CC2)cn1 (stereo not shown) [Compound I-727] |  | 0.2 to 1
CN1CCC2(CC1)CCN(c1ccc(-n3ncc4c(=O)n(CC5(O)CCN(C(=O)C6CC6)CC5)cnc43)cc1)CC2 [Compound I-1622] |  | < 0.2
COC1(C)CCN(c2cc(-n3ncc4c(=O)n(CC5(O)CCN(C(=O)C6CC6)CC5)cnc43)ccc2F)C1 (stereo not shown) [Compound I-633] | 1 to 10 | 
C[C@H](CC(=O)N1CCC(O)(Cn2cnc3c(cnn3-c3ccc(F)cc3)c2=O)CC1)N1CC2CCCC2C1 (stereo partly shown) [Compound I-525] | > 10 | 
O=C(c1cnn(C2CC2)c1)N1CCC(O)(Cn2cnc3c(cnn3-c3ccc(C4CC4)cc3)c2=O)CC1 [Compound I-798] |  | 0.2 to 1
CN1CCN(c2cccc(-n3ccc4c(=O)n(CC5(O)CCN(C(=O)C[C@H](C(F)F)n6cccn6)CC5)cnc43)c2)CC1 [Compound I-792] |  | 0.2 to 1
Cn1cc(C(=O)N2CCC(O)(Cn3cnc4c(cnn4-c4ccc(F)cc4)c3=O)CC2)c(Cc2ccccc2)n1 [Compound I-1161] |  | < 0.2
Cc1ncoc1C(=O)N1CCC(O)(Cn2cnc3c(cnn3-c3ccc(F)cc3)c2=O)CC1 [Compound I-312] | 1 to 10 | 
O=C(C1CCCC1)N1CCC(O)(Cn2cnc3c(cnn3-c3ccccc3)c2=O)CC1 [Compound I-195] | 0.2 to 1 | 
O=C(C1CC1)N1CCC(O)(Cn2cnc3c(cnn3-c3ccc(N4CCNCC4)cc3)c2=O)CC1 [Compound I-499] | 0.2 to 1 | 
O=C(C[C@@H](C(F)F)n1ccc(F)n1)N1CCC(O)(Cn2cnc3c(ccn3-c3ccc(F)cc3)c2=O)CC1 [Compound I-1126] |  | < 0.2
Cc1cnn(-c2ccc(-n3ncc4c(=O)n(CC5(O)CCN(C(=O)c6cnc(C)o6)CC5)cnc43)cc2)c1 [Compound I-488] |  | < 0.2
NCc1cccc(-n2ccc3c(=O)n(CC4(O)CCN(C(=O)c5ccc(F)cc5)CC4)cnc32)c1 [Compound I-51, 7-(3-(Aminomethyl)phenyl)-3-((1-(4-fluorobenzoyl)-4-hydroxypiperidin-4-yl)methyl)-3,7-dihydro-4H-pyrrolo[2,3-d]pyrimidin-4-one] | 1 to 10 | 
Cc1ccc(-n2ncc3c(=O)n(CC4(O)CCN(C(=O)c5ccc(OC(F)F)cc5)CC4)cnc32)cc1 [Compound I-1058] | 0.2 to 1 | 
C[C@@H](CC(=O)N1CCC(O)(Cn2cnc3c(cnn3-c3ccc(F)cc3)c2=O)CC1)n1cccn1 [Compound I-514] | 0.2 to 1 | 
CN1CCN(c2ccc(-c3ccc(-n4ncc5c(=O)n(CC6(O)CCN(C(=O)C7CC7)CC6)cnc54)cc3)cc2)CC1 [Compound I-844] | < 0.2 | 
O=C(C1CCC(OC2CCOCC2)CC1)N1CCC(O)(Cn2cnc3c(cnn3-c3ccc(F)cc3)c2=O)CC1 (stereo not shown) [Compound I-926] |  | 0.2 to 1
O=C(c1ccc(-n2cccn2)cc1)N1CCC(O)(Cn2cnc3c(cnn3-c3ccc(F)cc3)c2=O)CC1 [Compound I-535] | 0.2 to 1 | 
COC1(C)CCN(c2cc(-n3ncc4c(=O)n(CC5(O)CCN(C(=O)C6CC6)CC5)cnc43)ccc2F)C1 (single isomer, unassigned) [Compound I-971] | 0.2 to 1 | 
CO[C@]1(C)CCN(c2cc(-n3ncc4c(=O)n(CC5(O)CCN(C(=O)C6CC6)CC5)cnc43)ccc2F)C1 [Compound I-972] | 1 to 10 | 
